One data set deals with Thrombozytenaggregation. Put plainly: Collagen-induced platelet aggregation in platelet-rich plasma (method of Born and Cross). The note with it: human platelet-rich plasma, 10 min preincubation at 37°C, 50% change of optical density, read-out: Hemmung der Plättchenaggregation EC₅₀. It counts as cell-based. An excerpt:
2. Antithrombotische Wirkung
Die Thrombozytenaggregation wird nach der Methode von Born und Cross (J. Physiol. 170, 397 (1964)) in plättchenreichem Plasma gesunder Versuchspersonen gemessen. Zur Gerinnungshemmung wird das Blut mit Natriumcitrat 3,14 % im Volumenverhältnis 1:10 versetzt.
Collagen-induzierte Aggregation
Der Verlauf der Abnahme der optischen Dichte der Plättchensuspension wird nach Zugabe der aggregationsauslösenden Substanz photometrisch gemessen und registriert. Aus dem Neigungswinkel der Dichtekurve wird auf die Aggregationsgeschwindigkeit geschlossen. Der Punkt der Kurve, bei dem die größte Lichtdurchlässigkeit vorliegt, dient zur Berechnung der "optical density".
Die Collagen-Menge wird möglichst gering gewählt, aber doch so, daß sich eine irreversibel verlaufende Reaktionskurve ergibt. Verwendet wird das handelsübliche Collagen der Firma Hormonchemie, München.
Vor der Collagen-Zugabe wird das Plasma jeweils 10 Minuten mit der Substanz bei 37°C inkubiert.
Aus den erhaltenen Meßzahlen wird graphisch eine EC₅₀ bestimmt, die sich auf eine 50%ige Änderung der "optical density" im Sinne einer Aggregationshemmung bezieht.

In another data set the test system is Humanthrombozyten. Kind of data set: Inhibition of the binding of ³H-BIBU 52 to human platelets (fibrinogen binding test). The settings on record: displacement of ³H-BIBU 52 (5 nM) from human platelets in plasma, 20 min at room temperature; read-out: Fibrinogen-Bindungstest IC₅₀. An excerpt: 1. Hemmung der Bindung von ³H-BIBU 52 an Humanthrombozyten:
Eine Suspension von Humanthrombozyten in Plasma wird mit ³H-BIBU 52 [= (3S,5S)-5-[(4'-Amidino-4-biphenylyl)oxymethyl]-3-[(carboxyl)methyl]-2-pyrrolidinon[3-³H-4-biphenylyl]], das den literaturbekannten Liganden ¹²⁵J-Fibrinogen ersetzt, (siehe deutsche Patentanmeldung P 42 14 245.8 der gleichen Anmelderin vom 30. 04. 1992, internes Zeichen: Case 5/1093-FL) und verschiedenen Konzentrationen der zu testenden Substanz inkubiert. Der freie und gebundene Ligand wird durch Zentrifugation getrennt und durch Szintillationszählung quantitativ bestimmt. Aus den Meßwerten wird die Hemmung der ³H-BIBU 52-Bindung durch die Testsubstanz bestimmt.
Hierzu wird aus einer Antikubitalvene Spenderblut entnommen und mit Trinatriumzitrat antikoaguliert (Endkonzentration 13 mM). Das Blut wird 10 Minuten bei 170 x g zentrifugiert und das überstehende plättchenreiche Plasma (PRP) abgenommen. Das Restblut wird zur Gewinnung von Plasma noch einmal scharf abzentrifugiert. Das PRP wird mit autologem Plasma 1:10 verdünnt. 750 ml werden mit 50 ml physiologischer Kochsalzlösung, 100 ml Testsubstanzlösung, 50 ml ¹⁴C-Sucrose (3.700 Bq) und 50 ml ³H-BIBU 52 (Endkonzentration: 5 nM) bei Raumtemperatur 20 Minuten inkubiert. Zur Messung der unspezifischen Bindung wird anstelle der Testsubstanz 5 ml BIBU 52 (Endkonzentration: […]) eingesetzt. Die Proben werden 20 Sekunden bei 10000 x g zentrifugiert und der Überstand abgezogen. 100 ml hiervon werden zur Bestimmung des freien Liganden gemessen. Das Pellet wird in 500 ml 0,2N NaOH gelöst, 450 ml werden mit 2 ml Szintillator und 25 ml 5N HCl versetzt und gemessen. Das im Pellet noch verbliebene Restplasma wird aus dem ¹⁴C-Gehalt bestimmt, der gebundene Ligand aus der ³H-Messung. Nach Abzug der unspezifischen Bindung wird die Pelletaktivität gegen die Konzentration der Testsubstanz aufgetragen und die Konzentration für eine 50%ige Hemmung der Bindung ermittelt.

The subject of a further data set is Maus. Put plainly: Tolerability after intravenous administration to the mouse. It counts as in vivo. The settings on record: 30 mg/kg intravenous, 3 animals tested.

pEC50, pIC50: −log10 of the molar value. Structures can show the parent of a compound that is named as a salt.

Turning to `O=C(O)CC1CCN(C(=O)c2ccc(CCC34CCN(CC3)CC4)cc2)CC1` [1(1), 4-Carboxymethyl-1-[4-[2-(4-chinuclidinyl)-ethyl]-benzoyl]-piperidin], the pEC50 in the data set with Thrombozytenaggregation was 6.21. In addition, the pIC50 in the data set on Humanthrombozyten was 6.44.
Turning to `O=C(N[C@H]1CC[C@H](C(=O)O)CC1)c1ccc(CCC23CCN(CC2)CC3)cc1` [1(2), trans-4-[4-[2-(4-Chinuclidinyl)-ethyl]-benzoylamino]-cyclohexancarbonsäure], the “Mortality (verstorbene Tiere)” value in the data set with Maus is reported as “keines der 3 getesteten Tiere verstarb”.
Consider `CCCCS(=O)(=O)NC1(C(=O)O)CCC(NC(=O)N2CCC(OCC3CCNCC3)CC2)CC1` (stereo not drawn) [1(7), N-[1-Carboxy-cis-4-[[4-[(4-piperidinyl)-methyloxy]-1-piperidinyl]-carbonylamino]-cyclohexyl]-n-butansulfonamid], for which the pEC50 with Thrombozytenaggregation is 5.51. For the same molecule, in the data set with Humanthrombozyten, the pIC50 was 5.82.
Take `NC1(C(=O)O)CCC(NC(=O)N2CCC(OCC3CCNCC3)CC2)CC1` (stereo not drawn) [1(9), 1-Carboxy-cis-4-[[4-[(4-piperidinyl)-methyloxy]-1-piperidinyl]-carbonylamino]-cyclohexylamin]: the pEC50 in the data set on Thrombozytenaggregation was 5.89. Moreover, the pIC50 with Humanthrombozyten was 6.89.
Consider `O=C(O)CN(CCNC(=O)N1CCC(OCC2CCNCC2)CC1)CC(=O)O` [1(14), N-Carboxymethyl-N-[2-[[4-[(4-piperidinyl)-methyloxy]-1-piperidinyl]-carbonylamino]-ethyl]-glycin], for which the pEC50 with Thrombozytenaggregation is 4.64. In the data set on Humanthrombozyten, the pIC50 is 5.16.
Turning to `O=C(NC1CCNCC1)c1ccc(C(=O)N[C@H]2CC[C@H](C(=O)O)CC2)cc1` [3(4), trans-4-[4-[(4-Piperidinyl)-aminocarbonyl]-benzoylamino]-cyclohexancarbonsäure-hydrochlorid], in the data set with Thrombozytenaggregation, the pEC50 was 5.69. Moreover, in the data set with Humanthrombozyten, the pIC50 is 5.68.
For the molecule `O=C(O)CCC1CCN(C(=O)c2ccc(NCC3CCNCC3)cc2)CC1` [3(7), 4-(2-Carboxy-ethyl)-1-[4-[[(4-piperidinyl)-methyl]-amino]-benzoyl]-piperidin-hydrochlorid], in the data set with Thrombozytenaggregation, the pEC50 is 4.35. Further, the pIC50 in the data set on Humanthrombozyten is 4.31.
Take `O=C(O)CC1CCN(C(=O)c2ccc(NCC3CCNCC3)cc2)CC1` [3(8), 4-Carboxymethyl-1-[4-[[(4-piperidinyl)-methyl]-amino]-benzoyl]-piperidin-hydrochlorid]: the pEC50 in the data set on Thrombozytenaggregation was 5.24. Besides, the pIC50 with Humanthrombozyten is 5.19.
With `O=C(N[C@H]1CC[C@H](C(=O)O)CC1)c1ccc(NC(=O)C2CCNCC2)cc1` [3(9), trans-4-[4-[(4-Piperidinyl)-carbonylamino]-benzoylamino]-cyclohexancarbonsäure-hydrochlorid], the pEC50 in the data set on Thrombozytenaggregation was 5.49. In addition, the pIC50 in the data set on Humanthrombozyten is 5.64.
Consider `O=C(N[C@H]1CC[C@H](C(=O)O)CC1)c1cccc(OCC2CCNCC2)c1` [3(15), trans-4-[3-[(4-Piperidinyl)-methyloxy]-benzoylamino]-cyclohexancarbonsäure-hydrochlorid], for which the pEC50 in the data set with Thrombozytenaggregation is 5.92. The pIC50 in the data set with Humanthrombozyten is 6.20.
Take `O=C(N[C@H]1CC[C@H](C(=O)O)CC1)N1CCC(COC2CCNCC2)CC1` [3(16), trans-4-[[4-[(4-Piperidinyl)-oxymethyl]-1-piperidinyl]-carbonylamino]-cyclohexancarbonsäure-hydrochlorid]: in the data set with Thrombozytenaggregation, the pEC50 was 6.57. Besides, the pIC50 in the data set on Humanthrombozyten is 6.80.
As to `O=C(N[C@H]1CC[C@H](C(=O)O)CC1)N1CCC(OCC2CCNCC2)CC1` [3(17), trans-4-[[4-[(4-Piperidinyl)-methyloxy]-1-piperidinyl]-carbonylamino]-cyclohexancarbonsäure], the “Mortality (verstorbene Tiere)” value in the data set on Maus is given as “keines der 3 getesteten Tiere verstarb”. The pEC50 with Thrombozytenaggregation is 6.52. In addition, the pIC50 with Humanthrombozyten is 7.04.
In the case of `O=C(N[C@H]1CC[C@H](C(=O)O)CC1)c1ccc(OCC2CCNCC2)cc1` [3(23), trans-4-[4-[(4-Piperidinyl)-methyloxy]-benzoylamino]-cyclohexancarbonsäure-hydrochlorid], the pEC50 with Thrombozytenaggregation is 6.57. For the same molecule, the pIC50 in the data set on Humanthrombozyten was 6.72.
Turning to `NCC1CCc2cc(C(=O)N[C@H]3CC[C@H](CCC(=O)O)CC3)ccc2C1` (stereo partly drawn) [3(24), 3-[trans-4-[(2-Aminomethyl-1,2,3,4-tetrahydro-6-naphthyl)-carbonylamino]-cyclohexyl]-propionsäure-hydrochlorid], the pEC50 in the data set on Thrombozytenaggregation is 5.36. The pIC50 in the data set with Humanthrombozyten is 5.82.
As to `O=C(N[C@H]1CC[C@H](C(=O)O)CC1)c1ccc(CCc2ccncc2)cc1` [3(30), trans-4-[4-[2-(4-Pyridyl)-ethyl]-benzoylamino]-cyclohexan-carbonsäure-hydrochlorid], the pEC50 with Thrombozytenaggregation was 5.97. Moreover, the pIC50 in the data set on Humanthrombozyten is 5.92.
Consider `NCCc1ccc(C(=O)N[C@H]2CC[C@H](CCC(=O)O)CC2)cc1` [3(32), trans-1-[4-(2-Amino-ethyl)-benzoylamino]-4-(2-carboxyethyl)-cyclohexan-hydrochlorid], for which the pEC50 with Thrombozytenaggregation is 5.92.
For `COC(=O)[C@H]1CC[C@H](NC(=O)N2CCC(OCC3CCNCC3)CC2)CC1` [4(23), trans-4-[[4-[(4-Piperidinyl)-methyloxy]-1-piperidinyl]-carbonylamino]-cyclohexancarbonsäure-methylester-hydrochlorid], the “Mortality (verstorbene Tiere)” value in the data set with Maus is recorded as “keines der 3 getesteten Tiere verstarb”. Besides, the pEC50 with Thrombozytenaggregation was 6.43. Further, the pIC50 with Humanthrombozyten was 6.74.
Consider `NCCOc1ccc(C(=O)N[C@H]2CC[C@H](CCC(=O)O)CC2)cc1` [4(32)], for which, in the data set on Thrombozytenaggregation, the pEC50 was 6.01. Moreover, the pIC50 in the data set on Humanthrombozyten was 6.89.
In the case of `NCCOc1ccc(C(=O)N[C@H]2CC[C@H](OCC(=O)O)CC2)cc1` [4(34)], the pEC50 with Thrombozytenaggregation is 5.47. The pIC50 in the data set on Humanthrombozyten is 6.08.
`O=C(N[C@H]1CC[C@H](C(=O)O)CC1)c1cccc(CCC23CCN(CC2)CC3)c1` [Beispiel 1, trans-4-[3-[2-(4-Chinuclidinyl)-ethyl]-benzoylamino]-cyclohexancarbonsäure]: the pEC50 in the data set with Thrombozytenaggregation was 5.77. Also, in the data set on Humanthrombozyten, the pIC50 was 6.26.
As for `O=C(N[C@H]1CC[C@H](C(=O)O)CC1)c1ccc(OCC23CCN(CC2)CC3)cc1` [Beispiel 3, trans-4-[4-[(4-Chinuclidinyl)-methyloxy]-benzoylamino]-cyclohexancarbonsäure-hydrochlorid], the “Mortality (verstorbene Tiere)” value in the data set with Maus is recorded as “keines der 3 getesteten Tiere verstarb”. In addition, the pEC50 in the data set on Thrombozytenaggregation was 6.44. The pIC50 in the data set with Humanthrombozyten is 7.07.

The values above are taken from patent publication EP0638553A1, “Carboxylic acid amides having a terminal carboxylic acid group as aggregation inhibiting drugs” (Dr. Karl Thomae GmbH, priority 1993, dated 1995).
